# Test results: ChEMBL document CHEMBL1201862, “PubChem BioAssay data set” (2004)
# Calls of active or inactive are those of the source.
# Tests used:
# HeLa = assay: HeLa cell cytotoxicity, dose response, cytotoxicity control for MITF activator project, CellTiter-Glo luminescence, cherry-pick samples (AID 540259); format: functional, cell-based; conditions: Homo sapiens
# [1] = biological target: T1, Ubiquitin-conjugating enzyme E2 N (Homo sapiens, UniProt P61088); format: functional
# T1 sequence (P61088 whole entry): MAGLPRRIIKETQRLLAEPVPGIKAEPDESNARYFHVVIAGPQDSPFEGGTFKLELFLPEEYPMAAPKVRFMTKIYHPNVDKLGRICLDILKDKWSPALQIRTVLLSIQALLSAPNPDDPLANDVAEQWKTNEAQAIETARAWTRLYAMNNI
# [2] = Shn3 3'UTR reporter inhibitors, dose response, cell-based, Clone20 osteoblasts, firefly luciferase, cherry-picked (AID 624132); format: functional;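 note: firefly luciferase luminescence from reporter carrying the Shn3 3'UTR in osteoblasts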
# [3] = biological target: T2, Microphthalmia-associated transcription factor (Homo sapiens, UniProt O75030); assay: TRPM1 promoter luciferase signal decrease, dose response, MITF inhibitor project, cell-based, SK-MEL-5, cherry-picked, set 3 (AID 493073); format: functional
# T2 sequence (O75030 whole entry): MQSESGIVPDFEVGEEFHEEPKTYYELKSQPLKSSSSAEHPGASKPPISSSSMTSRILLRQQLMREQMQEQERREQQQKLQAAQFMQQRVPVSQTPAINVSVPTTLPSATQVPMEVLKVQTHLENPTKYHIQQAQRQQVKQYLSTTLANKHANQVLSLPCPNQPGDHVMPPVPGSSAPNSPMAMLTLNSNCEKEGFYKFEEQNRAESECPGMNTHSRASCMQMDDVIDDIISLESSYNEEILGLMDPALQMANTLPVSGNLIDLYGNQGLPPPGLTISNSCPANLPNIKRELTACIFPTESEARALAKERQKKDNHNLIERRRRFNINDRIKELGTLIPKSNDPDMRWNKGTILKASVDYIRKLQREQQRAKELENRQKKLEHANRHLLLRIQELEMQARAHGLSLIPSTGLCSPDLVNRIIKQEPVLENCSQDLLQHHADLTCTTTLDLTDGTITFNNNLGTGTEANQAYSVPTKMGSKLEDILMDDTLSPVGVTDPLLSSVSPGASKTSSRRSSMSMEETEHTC
# CHO = assay: cytotoxicity in TLR9-MyD88 CHO cells, dose response, cytotoxicity control for TLR9-MyD88 binding inhibitor project, cell-based, luminescence (AID 588339); format: functional, hamster; conditions: Cricetulus griseus;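 note: CHO cells stably coexpressing TLR9 and MyD88 fusions from primary screen; compound exposure lasted 48 hours before viability readout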
# [4] = biological target: T1, Ubiquitin-conjugating enzyme E2 N; format: functional; remark: listed apart in the source
# Bcl-2-related protein A1 = biological target: T3, Bcl-2-related protein A1 (Mus musculus, UniProt Q07440); format: functional;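 note: confirmatory dose–response counterscreen on Bfl-1, used to check hits from a UBC13 polyubiquitin inhibitor campaign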
# T3 sequence (Q07440 whole entry): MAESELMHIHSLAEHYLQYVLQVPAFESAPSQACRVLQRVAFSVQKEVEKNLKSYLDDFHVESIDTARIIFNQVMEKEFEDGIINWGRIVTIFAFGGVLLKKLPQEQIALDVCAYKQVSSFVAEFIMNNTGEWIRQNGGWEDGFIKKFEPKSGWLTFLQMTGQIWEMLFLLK
# [5] = control 3'UTR Renilla luciferase suppression, dose response, counter-screen for Shn3 inhibitor project, cell-based, Clone20-Shn3RL, cherry-picked (AID 624133); format: functional
# Protein RecA = biological target: T4, Protein RecA (Mycobacterium tuberculosis, UniProt P9WHJ3); assay: Fluorescence Cell-Free Homogeneous Dose Retest to Identify Inhibitors of RecA-Intein Splicing Activity. [Related pubchem assays (depositor defined):AID2097, AID2223, AID489010, AID492950]; format: functional
# T4 sequence (P9WHJ3 whole entry): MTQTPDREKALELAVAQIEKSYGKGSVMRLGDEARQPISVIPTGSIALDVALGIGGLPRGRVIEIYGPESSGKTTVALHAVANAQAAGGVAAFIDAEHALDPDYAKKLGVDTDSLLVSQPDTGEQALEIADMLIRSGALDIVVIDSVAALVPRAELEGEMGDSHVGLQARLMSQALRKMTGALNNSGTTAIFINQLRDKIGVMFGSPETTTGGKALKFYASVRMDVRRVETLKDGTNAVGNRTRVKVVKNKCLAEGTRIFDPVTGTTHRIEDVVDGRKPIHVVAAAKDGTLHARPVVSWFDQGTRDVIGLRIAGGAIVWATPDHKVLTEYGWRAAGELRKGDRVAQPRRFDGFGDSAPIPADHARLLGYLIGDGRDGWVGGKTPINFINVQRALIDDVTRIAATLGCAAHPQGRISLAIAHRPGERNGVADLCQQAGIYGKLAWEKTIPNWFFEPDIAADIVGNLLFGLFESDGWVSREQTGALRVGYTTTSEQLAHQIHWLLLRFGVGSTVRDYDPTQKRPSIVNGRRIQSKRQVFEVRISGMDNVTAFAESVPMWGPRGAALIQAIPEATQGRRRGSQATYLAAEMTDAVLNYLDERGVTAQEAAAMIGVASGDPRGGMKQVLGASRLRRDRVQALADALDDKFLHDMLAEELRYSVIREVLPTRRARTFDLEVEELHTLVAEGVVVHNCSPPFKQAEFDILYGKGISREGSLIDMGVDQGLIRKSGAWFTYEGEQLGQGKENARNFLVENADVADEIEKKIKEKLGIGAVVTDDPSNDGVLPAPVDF
# [6] = HepG2 cell cytotoxicity, dose response, cytotoxicity control for Shn3 inhibitor project, CellTiter-Glo, cherry-picked (AID 624134); format: functional, cell-based
# [7] = biological target: T5, Replicative DNA helicase DnaB (Mycobacterium tuberculosis, UniProt P9WMR3); assay: DnaB intein splicing inhibitors, dose response, biochemical, cell-free fluorescence (AID 449749); format: functional
# T5 sequence (P9WMR3 whole entry): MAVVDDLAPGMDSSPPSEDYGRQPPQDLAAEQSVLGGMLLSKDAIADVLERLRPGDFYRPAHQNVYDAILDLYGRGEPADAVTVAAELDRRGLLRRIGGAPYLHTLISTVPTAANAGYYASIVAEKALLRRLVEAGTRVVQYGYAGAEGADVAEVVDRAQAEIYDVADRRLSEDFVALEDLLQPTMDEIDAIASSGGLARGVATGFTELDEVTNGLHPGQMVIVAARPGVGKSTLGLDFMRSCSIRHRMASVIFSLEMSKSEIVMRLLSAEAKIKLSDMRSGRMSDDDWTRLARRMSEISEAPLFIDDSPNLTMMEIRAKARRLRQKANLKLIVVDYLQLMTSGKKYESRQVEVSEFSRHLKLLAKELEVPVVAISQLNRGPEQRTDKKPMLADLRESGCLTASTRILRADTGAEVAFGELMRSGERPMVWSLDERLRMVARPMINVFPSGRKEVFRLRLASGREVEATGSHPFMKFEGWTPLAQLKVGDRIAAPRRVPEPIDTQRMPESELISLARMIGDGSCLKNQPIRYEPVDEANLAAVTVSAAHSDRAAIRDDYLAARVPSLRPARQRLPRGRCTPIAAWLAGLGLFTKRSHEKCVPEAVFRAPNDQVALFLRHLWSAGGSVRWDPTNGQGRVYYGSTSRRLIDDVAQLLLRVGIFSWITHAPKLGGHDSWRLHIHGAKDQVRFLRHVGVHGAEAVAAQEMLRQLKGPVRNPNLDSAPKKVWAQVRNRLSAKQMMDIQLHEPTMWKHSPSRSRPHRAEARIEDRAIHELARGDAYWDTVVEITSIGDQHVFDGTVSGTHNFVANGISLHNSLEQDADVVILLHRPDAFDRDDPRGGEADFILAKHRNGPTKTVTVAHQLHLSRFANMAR
# [8] = Luminescence Cell-Based Dose Retest to Confirm Inhibitors of Cancer Stem Cells. [Related pubchem assays (depositor defined):AID2717, AID2721]; format: functional; conditions: Homo sapiens
# Genome polyprotein = Genome polyprotein (dengue virus type 2, UniProt P29990); assay: Dengue-2 NS5 methyltransferase inhibitors, primary screen, biochemical, confirmation dose response (AID 588689); format: functional
# Genome polyprotein, sequence (P29990 2492-3391 limits assumed): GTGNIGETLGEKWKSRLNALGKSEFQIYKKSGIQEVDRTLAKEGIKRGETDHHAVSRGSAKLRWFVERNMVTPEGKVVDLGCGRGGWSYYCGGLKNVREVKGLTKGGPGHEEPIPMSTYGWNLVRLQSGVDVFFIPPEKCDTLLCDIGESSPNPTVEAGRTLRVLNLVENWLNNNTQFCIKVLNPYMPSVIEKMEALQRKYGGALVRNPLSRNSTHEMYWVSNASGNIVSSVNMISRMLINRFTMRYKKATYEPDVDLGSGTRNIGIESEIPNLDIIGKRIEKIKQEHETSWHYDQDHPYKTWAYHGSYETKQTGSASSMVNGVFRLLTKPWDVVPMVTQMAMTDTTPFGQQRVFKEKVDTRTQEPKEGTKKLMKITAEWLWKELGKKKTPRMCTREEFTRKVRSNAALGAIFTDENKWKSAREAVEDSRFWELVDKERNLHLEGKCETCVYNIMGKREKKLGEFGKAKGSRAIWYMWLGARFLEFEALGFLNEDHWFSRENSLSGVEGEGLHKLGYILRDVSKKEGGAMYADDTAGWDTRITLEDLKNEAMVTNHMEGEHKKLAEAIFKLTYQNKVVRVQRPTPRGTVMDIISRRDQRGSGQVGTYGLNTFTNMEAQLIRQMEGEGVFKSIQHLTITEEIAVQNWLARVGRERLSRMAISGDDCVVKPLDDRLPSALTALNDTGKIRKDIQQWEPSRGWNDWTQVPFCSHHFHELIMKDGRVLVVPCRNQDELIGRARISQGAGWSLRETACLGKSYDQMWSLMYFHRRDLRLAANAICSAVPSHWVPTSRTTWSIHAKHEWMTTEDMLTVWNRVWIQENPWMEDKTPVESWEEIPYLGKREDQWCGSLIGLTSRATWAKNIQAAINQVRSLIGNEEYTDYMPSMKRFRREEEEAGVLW
# Beta Lactamase = Beta Lactamase (Pseudomonas aeruginosa, UniProt Q932Y6); assay: beta-lactamase reporter inhibitor potency, dose response, artefact control for TLR9-MyD88 binding inhibitor project, BLA reporter cells, FRET fluorescence (AID 588341); format: cell-based;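 note: cell based assay in CHO-K1 cells stably expressing beta-lactamase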
# Beta Lactamase, sequence (Q932Y6 whole entry): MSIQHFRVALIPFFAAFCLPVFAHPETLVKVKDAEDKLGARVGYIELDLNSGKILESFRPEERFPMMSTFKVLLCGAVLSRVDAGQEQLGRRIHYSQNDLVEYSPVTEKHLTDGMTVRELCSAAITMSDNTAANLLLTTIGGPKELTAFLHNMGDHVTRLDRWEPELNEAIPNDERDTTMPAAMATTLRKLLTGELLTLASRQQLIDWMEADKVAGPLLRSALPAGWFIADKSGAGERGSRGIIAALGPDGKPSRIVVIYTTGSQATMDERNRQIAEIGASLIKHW
# Prothrombin = Prothrombin (Bos taurus, UniProt P00735); assay: thrombin inhibition, dose response, biochemical, fluorescence polarization, uHTS hits (AID 602369); format: functional
# [9] = biological target: 26S proteasome non-ATPase regulatory subunit 14 (Homo sapiens, UniProt O00487); assay: inhibition of proteasome subunit RPN11 – biochemical, fluorescence polarization, uHTS hits, confirmation (AID 602368); format: functional
# 26S proteasome non-ATPase regulatory subunit 14, sequence (O00487 whole entry): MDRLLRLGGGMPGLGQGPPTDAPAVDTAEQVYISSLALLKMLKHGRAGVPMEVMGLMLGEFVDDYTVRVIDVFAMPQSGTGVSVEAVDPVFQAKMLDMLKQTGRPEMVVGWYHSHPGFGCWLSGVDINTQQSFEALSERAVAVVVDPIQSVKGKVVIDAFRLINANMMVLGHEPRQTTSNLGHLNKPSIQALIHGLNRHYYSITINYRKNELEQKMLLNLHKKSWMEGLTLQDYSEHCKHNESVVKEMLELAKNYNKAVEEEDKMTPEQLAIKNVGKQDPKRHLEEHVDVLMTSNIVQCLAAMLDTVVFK
# [10] = biological target: 72 kDa type IV collagenase (Homo sapiens, UniProt P08253); assay: Dose Response validation of uHTS RPN11 inhibitor hits using a MMP-2 Fluorescence assay.; format: functional
# 72 kDa type IV collagenase, sequence (P08253 whole entry, the tested form may be a part): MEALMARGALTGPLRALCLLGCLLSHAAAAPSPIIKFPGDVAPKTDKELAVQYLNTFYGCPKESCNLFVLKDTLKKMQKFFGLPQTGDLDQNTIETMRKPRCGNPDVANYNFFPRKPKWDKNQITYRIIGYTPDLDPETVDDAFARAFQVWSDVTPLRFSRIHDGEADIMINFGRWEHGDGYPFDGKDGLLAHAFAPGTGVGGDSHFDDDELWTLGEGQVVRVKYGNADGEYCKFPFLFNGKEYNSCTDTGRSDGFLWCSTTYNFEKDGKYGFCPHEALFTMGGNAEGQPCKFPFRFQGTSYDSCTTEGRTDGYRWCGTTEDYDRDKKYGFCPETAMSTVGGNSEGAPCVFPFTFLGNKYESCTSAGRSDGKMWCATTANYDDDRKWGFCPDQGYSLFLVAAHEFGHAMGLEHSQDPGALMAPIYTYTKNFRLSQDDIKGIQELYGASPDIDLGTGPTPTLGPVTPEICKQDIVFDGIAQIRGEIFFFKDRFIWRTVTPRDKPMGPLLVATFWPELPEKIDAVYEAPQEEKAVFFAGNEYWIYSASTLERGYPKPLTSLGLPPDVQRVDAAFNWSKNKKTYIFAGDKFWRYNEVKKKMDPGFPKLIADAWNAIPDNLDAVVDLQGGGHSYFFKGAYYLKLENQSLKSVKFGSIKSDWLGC
# [11] = biological target: T6, Carboxy-terminal domain RNA polymerase II polypeptide A small phosphatase 1 (Homo sapiens, UniProt Q9GZU7); assay: inhibitors of CTDSP1, concentration-response testing, biochemical assay, absorbance-based, actives from ultra-high-throughput screening (AID 540297); format: functional
# T6 sequence (Q9GZU7 whole entry): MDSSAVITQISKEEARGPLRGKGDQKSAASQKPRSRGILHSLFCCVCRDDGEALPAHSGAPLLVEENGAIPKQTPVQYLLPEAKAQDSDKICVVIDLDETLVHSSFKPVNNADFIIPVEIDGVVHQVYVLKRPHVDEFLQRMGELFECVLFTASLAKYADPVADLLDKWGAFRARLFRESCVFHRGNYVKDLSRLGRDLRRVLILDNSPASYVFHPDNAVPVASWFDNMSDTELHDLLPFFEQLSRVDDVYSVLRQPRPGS
# P388 = assay: cells; format: functional; conditions: Mus musculus
# SN12K1 = assay: cells; format: functional; conditions: Homo sapiens
# P388/ADR = assay: cells; format: functional; conditions: Mus musculus
# [12] = biological target: T7, Endoribonuclease toxin MazF (Escherichia coli K-12, UniProt P0AE70); assay: fluorescent RNA oligo signal without MazF, dose response, counter-screen for MazEF activator project, biochemical, fluorescence, single-stranded RNase substrate (AID 588502); format: functional
# T7 sequence (P0AE70 whole entry): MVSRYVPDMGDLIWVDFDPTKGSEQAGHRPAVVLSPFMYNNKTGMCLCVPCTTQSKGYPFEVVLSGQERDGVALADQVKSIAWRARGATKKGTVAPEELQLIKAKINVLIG
# [13] = biological target: T7, Endoribonuclease toxin MazF; assay: MazF toxin RNase activators, dose response, biochemical, fluorescence, single-stranded RNA substrate, uHTS hits (AID 588481); format: functional
compound,measurement,setting,value
O=C(Nc1ccc(-c2nc3cccnc3s2)cc1)c1ccc(Cl)nc1,AC50,HeLa,201 µM (active)
CS(=O)(=O)c1ncc(Cl)c(C(=O)Nc2ccc(N3CCOCC3)cc2)n1,IC50,[1],> 20 µM (inactive)
same,AC50,[2],1.21 µM (active)
same,AC50,[3],22.8 µM (active)
same,IC50,CHO,4.79 µM (active)
same,IC50,[4],14.9 µM (active)
same,IC50,Bcl-2-related protein A1,> 20 µM (inactive)
same,AC50,[5],12.9 µM (active)
same,EC50,Protein RecA,12.8 µM (active)
same,AC50,[6],24 µM (active)
same,AC50,[7],4.51 µM (active)
same,AC50,[8],5.14 µM (active)
same,IC50,Genome polyprotein,> 100 µM (active)
same,IC50,Beta Lactamase,10.2 µM (inactive)
O=c1nc2sc3ccccc3n2c(=O)n1-c1ccc(Cl)cc1,AC50,HeLa,43.9 µM (active)
Cc1ccc(C(=O)Nc2cccc(O)c2)cc1S(=O)(=O)N1CCCCCC1,AC50,HeLa,321 µM (active)
CCCC(=O)Nc1nc(-c2ccccc2)ns1,AC50,HeLa,64.7 µM (active)
Cc1ccc(CNC(=O)c2nnn(CC(=O)Nc3cc(C)cc(C)c3)c2N)cc1,IC50,Prothrombin,76.5 µM (active)
same,IC50,[9],35.4 µM (active)
same,IC50,[10],> 100 µM (inactive)
COc1ccccc1Cc1c(-c2cccc(Cl)c2)nc2ccc(Br)cn12,IC50,Prothrombin,8.29 µM (active)
same,IC50,[9],14.2 µM (active)
same,IC50,[10],> 100 µM (inactive)
O=C(CSc1nc2sc3c(c2c(=O)n1-c1ccccc1)CCCC3)N/N=C/c1ccccc1C(=O)O,IC50,[11],9.27 µM (active)
O=C(NC(Cc1ccc(I)cc1)C(=O)O)c1ccc(Br)cc1 (centres undefined),GI50,P388,53.7 µM (inactive)
same,GI50,SN12K1,> 100 µM (inactive)
same,GI50,P388/ADR,21.3 µM (inactive)
C/C(=N\Nc1ccc([N+](=O)[O-])cc1)c1cc2ccccc2o1,IC50,CHO,49.7 µM (inactive)
same,IC50,Prothrombin,1.62 µM (active)
same,IC50,[9],1.82 µM (active)
same,IC50,[10],> 100 µM (inactive)
same,IC50,Beta Lactamase,3 µM (active)
CC(C)=CCC(OC(=O)C=C(C)C)c1cc(O)c2c(c1O)C(=O)C=CC2=O (centres undefined),GI50,P388,0.0296 µM (active)
same,GI50,SN12K1,1.2 µM (inactive)
same,GI50,P388/ADR,0.023 µM (active)
COc1cc(/N=N\c2ccc(OC)c(S(=O)(=O)O)c2)c(C)cc1/N=N\c1ccc(/C=C/c2ccc(/N=[N+](/[O-])c3ccc(/C=C/c4ccc(/N=N/c5cc(C)c(/N=N\c6ccc(OC)c(S(=O)(=O)O)c6)cc5OC)cc4S(=O)(=O)O)c(S(=O)(=O)O)c3)cc2S(=O)(=O)O)c(S(=O)(=O)O)c1,GI50,P388,> 100 µM (inactive)
same,GI50,SN12K1,> 100 µM (inactive)
COc1cc(C2c3cc4c(cc3[C@@H](Nc3ccc([N+](=O)[O-])cc3)C3COC(=O)[C@H]23)OCO4)cc(OC)c1O (some centres undefined),GI50,P388,< 0.01 µM (active)
same,GI50,SN12K1,0.0427 µM (active)
same,GI50,P388/ADR,0.324 µM (active)
CCOc1ccccc1C(=O)Nc1cc(Cl)ccc1O,EC50,[12],> 99 µM (inactive)
same,EC50,[13],38 µM (inactive)
Cc1[nH]c2ccccc2c1/C=C(\C#N)C(=O)NCc1ccccc1,EC50,[12],> 99 µM (inactive)
same,EC50,[13],> 99 µM (inactive)
